The values that follow come from a melting point compilation (Tetko et al.; mined from patent text by program, amines drawn as free bases though some values may be those of a salt).

The term melting point denotes the temperature, or range, at which the solid turns liquid. `C#CC1(O)C(C)CC2(CC1(C)C)OC(C)C(C)O2` (stereo unspecified) registered a melting point of 79 to 83 °C. The same measure for `O=C(O)CSC(F)(F)F`: 130 °C. `CCCCCn1c(C)c(C(=O)c2ccc(Br)c3ccccc23)c2cccc(OC)c21`: the melting point was 114 °C. Compound `CCCCC1CSC(C(=O)Nc2c(SC)cc(C)nc2SC)c2cc(OC)c(OC)cc2C1` (stereo unspecified) gave a melting point of 143 to 145 °C. Take `O=C1CCCc2cc(F)cc(F)c21`: the melting point lay in the range of 57 to 58 °C. With `Oc1ccc(-c2ccc(O)cc2I)c(I)c1`, the melting point lay within 171 to 172 °C. `N#CCc1nc(C(F)(F)F)ccc1C(=O)O` registered a melting point of 152 to 153 °C. `CCCCOC(=O)NC(=O)C(C)(c1ccccc1)c1ccccc1` yielded a melting point of 83 °C. In turn, `O=C1N(c2ccccc2)c2ccccc2C1(Cc1ccncc1)Cc1ccc([N+](=O)[O-])cc1` (stereo unspecified) yielded a melting point of 168 to 169 °C. Take `CC(=O)NNC(=O)c1ccncc1`: the melting point lay within 158 to 160 °C. `COc1cc(N)c2nc(OCc3ccc(Cl)cc3)ccc2c1` showed a melting point of 124 to 125 °C. For `O=C1NC(=O)C2c3cccc4cccc(c34)C12` (stereo unspecified), the melting point was 242 to 246 °C. Compound `Cn1c(COc2ccc(CC3SC(=O)NC3=O)cc2)nc2ccc(-c3ccccc3)nc21` (stereo unspecified) showed a melting point of 211 to 213 °C. `CC(C)C(=O)N[C@H]1C[C@@H](c2cc(NC(=O)Cc3cccc4ccccc34)n[nH]2)C1` registered a melting point of 131 °C. Take `Cc1c(C(=O)N[C@H](C)[C@](O)(Cn2cncn2)c2ccc(F)cc2F)cnn1-c1c(Cl)cccc1Cl`: the melting point was 226 to 227 °C.

Take `CC(=O)NN=C(C)c1ccc(C)nc1`: the melting point came out at 178 °C. In the case of `CCCCN(C1CCCOc2ccccc21)S(C)(=O)=O` (stereo unspecified), the melting point was 78 to 79 °C.

`CCOC(=O)C1CCc2c(sc3nc(CN4C(=O)COC4=O)c(Cl)c(-c4ccc(OC)cc4)c23)C1` (stereo unspecified): the melting point lay in the range of 118 to 119 °C. `CCOC(=O)c1ccc(Cc2ccc3c(c2)OCO3)o1` came in with a melting point of 67 to 68 °C. `COC(=O)c1cccc(OCc2cc(Br)cs2)c1C(=O)OC` showed a melting point of 65 °C. In the case of `CCCCCCCCCCCCCCOc1ccc(CBr)cc1`, the melting point fell in the range of 40 to 41 °C. Under `COc1ccc(S(=O)(=O)Nc2ccc(Cl)cc2/C=C/c2ccncc2)cc1` stands 175 to 176 °C; under `CC1(C)Cc2cc(OCC(=O)O)c(Cl)c(Cl)c2C1=O`, 182 °C. `CCOC(=O)C(CCc1ccccc1)NC1CSC(c2ccsc2)CN(CC(=O)O)C1=O` (stereo unspecified): the melting point was 165 °C. For the compound `Cc1ccccc1-n1c(-c2sc(Nc3ccc(Cl)cc3)nc2-c2ccccc2)nc2ccccc2c1=O`, the melting point was over 275 °C. Under `O=C(O)C1=Cc2cc(Cl)cc(-c3ccccc3)c2OC1C(F)(F)F` (stereo unspecified) stands 196 to 198 °C; under `CCCCCCCC(=O)NC(=O)OCc1nc(C(C)C)c(Sc2cc(Cl)cc(Cl)c2)n1CC`, 99 to 101 °C. Turning to `CC1(Oc2ccc(N)cc2)C2CC3CC(C2)CC1C3` (stereo unspecified), the melting point was 95.6 to 97.9 °C. `Fc1ccc(-c2ccccc2)c(F)c1` gave a melting point of 63 to 65 °C. Compound `COC(=O)c1c(C(=O)O)cc2ccc3c(c2c1-c1ccc2c(c1)OCO2)OCO3` registered a melting point of 273 to 275 °C. Take `O=C(c1ccc(F)cc1)C1CCN(C2Sc3ccccc3NC2=O)CC1` (stereo unspecified): the melting point came to 218 °C.

In turn, `CN(C(=O)CCCCO/N=C(\c1ccccc1)c1ccc2c(c1)CN1CC(=O)NC1=N2)C1CCCCC1` returned a melting point of 190 °C. Under `COc1ccc(Nc2cccc(Cl)c2[N+](=O)[O-])cc1` stands 73 to 74 °C; under `O=C1CCC(c2ccc(-n3cnc4c3CCCC4)cc2)=NN1`, 296 to 297 °C.

Consider `CCOC(=O)CCc1cccc(C2COc3c(C)c(C)c(NC(=O)CC(C)(C)C)c(C)c32)c1` (stereo unspecified), for which the melting point was in the range of 136 to 138 °C. The compound `c1ccc(N2CCN(Cc3n[nH]c4ccccc34)CC2)cc1` registered a melting point of 196 to 197 °C. Compound `COc1cccc2c1CCCC2CN=[N+]=[N-]` (stereo unspecified) displayed a melting point of 65 to 66 °C. Under `NS(=O)(=O)c1cc2c3c(ccc2cc1[N+](=O)[O-])N(C(=O)C(F)(F)F)CC3CCl` (stereo unspecified) stands 192 to 195 °C; under `Clc1cc(Cl)nc(N2CCOCC2)n1`, 140 °C; under `O=C(O)CCC(=NO)c1ccc(-c2ccccc2F)cc1`, 150 to 152 °C. The same measure for `O=C(NCCO)/C(=C/c1ccc(C2CC2)cc1)NC(=O)c1ccc(OCCc2ccccc2)cc1`: 113 to 115 °C; for `Oc1ccc(-c2ccc(F)cc2F)cc1C12CC3CC(CC(C3)C1)C2`: 146 to 148 °C.

With `CS(=O)(=O)Cc1cc(Br)ccc1C(=O)c1cnoc1C1CC1`, the melting point was found to be 154 °C. `COc1cccc2c(Nc3ccccc3C)c(C(=O)CCC(=O)O)cnc12` displayed a melting point of 263 to 265 °C. `CCOC(=O)c1cccc(NC(=O)C(CO)NS(=O)(=O)c2ccc(Cl)cc2)c1` (racemic) registered a melting point of 142 to 144 °C. With `CCOC(=O)C(C)=CNc1ccc2ccccc2n1`, the melting point is 164 to 165 °C.

`CCNC(=O)c1ccccc1-c1ccccc1`: the melting point is 77 to 79 °C.

Turning to `COC(=O)c1cnc(Cl)c(OC)c1`, the melting point fell in the range of 83 to 85 °C. `CC(=Nc1ccccc1C(C)C)Nc1ccccc1C(C)C` yielded a melting point of 94 to 96 °C. Under `O=C(CCS)N[C@@H](Cc1ccccc1)C(=O)O` stands 106 to 107 °C; under `COC(=O)c1cc(Cl)c2c(c1OC)CCN2C(C)=O`, 107 to 109 °C; under `CC1Sc2c(C(=O)O)c(=O)c3cc(F)c(N4CCSCC4)cc3n21` (stereo unspecified), 229 to 231 °C. In turn, `Cc1nc(Nc2ccc(F)cc2)nc(Cl)c1C` displayed a melting point of 114 °C.

In the case of `Cc1ccc(-c2cn(C)cc(-c3cccc(C(F)(F)F)c3)c2=O)c(C)c1`, the melting point lay in the range of 128 to 131 °C.

For `CCOC(=O)COc1ccc(NC(C)=O)cc1NC(=O)c1ccc(OCCCCc2ccccc2)cc1`, the melting point fell in the range of 130 to 132 °C.

Turning to `CC(C)(C)OC(=O)NCc1cccc(C(=O)O)n1`, the melting point lay within 238 to 240 °C. In turn, `CSc1nc2ccc(Br)cc2c2nn(-c3ccc(C)cc3)c(=O)n12` showed a melting point of 213 °C. `Nc1cc(F)c(F)cc1C(=O)c1ccccc1` yielded a melting point of 100 to 101 °C. With `C[C@H]1Cc2c(F)c(F)cc3c(=O)c(C(=O)O)cn1c23`, the melting point is 279 to 283 °C. The same measure for `COCCC(=O)N[C@H]1CC[C@H](CCN2CCN(c3nc(C)cc4c3CCO4)CC2)CC1`: 178 °C.

`Cc1noc(-c2ncn3c2CN(C)C(=O)c2ccccc2-3)n1` gave a melting point of 257 to 260 °C. For `CSC(C#N)=C1CCN(c2ccc(N3C[C@H](CNC(C)=O)OC3=O)cc2F)CC1`, the melting point fell in the range of 205 to 207 °C. Under `Nc1c(I)cc(Cl)cc1I` stands 127 to 129 °C; under `CN1C(=O)C(=O)N(CCCCCBr)C1=S`, 48 to 50 °C. As for `CCCOc1ccc(S(=O)(=O)N2CCN(C)CC2)cc1-c1nc2cc3ncn(Cc4cccc(Cl)c4)c3cc2c(=O)[nH]1`, the melting point lay in the range of 198 to 200 °C.

The compound `CC(C)c1ccc2c(c1)c(Sc1ccccc1)c(CC(=O)O)n2Cc1ccc(Cl)cc1` returned a melting point of 151 to 153 °C.
